Source: patent US9046516B2, “Immunoassay method, reagent kit for detecting alkaline phosphatase, and reagent kit for immunoassay” (SYSMEX CORPORATION, priority 2007, dated 2015)

Tested on: endogenous ALP
Experiment: HBs antigen immunoassay with ALP label: luminescence intensity of samples, reduction of the influence of endogenous ALP
Type: biochemical
Details: particle dispersion with 2 mM levamisole
Method: In this example, the effect of the inhibitor of endogenous ALP contained in the particle dispersion prepared in (4) above on reduction of the influence of endogenous ALP was examined.
Specifically, the reagents prepared in (1) to (5) above were used and the luminescence intensities of HBs antigen-negative samples were measured. The measurement method is described below.
First, 25 μL sample was mixed with 30 μL of the HBs antibody reagent and then incubated at 42° C. for about 3 minutes, whereby an HBs antigen in the sample was reacted with the biotinylated HBs antibody in the HBs antibody reagent. Subsequently, 30 μL of the magnetic particle reagent was added to the mixture and then incubated for about 2 minutes, and a complex consisting of the HBs antigen and the biotinylated HBs antibody was immobilized on the ST magnetic particles. […] 50 μL of the particle dispersion was added to the ST magnetic particles from which the wash fluid had been removed, then the ST magnetic particles were dispersed in the particle dispersion, 100 μL of the substrate solution was added thereto, and the luminescence intensity of the sample was measured with LUMI-COUNTER 700 (Microtec Nichion). […]

c1ccc([C@H]2CN3CCSC3=N2)cc1 [Levamisole, (−)-2,3,5,6-tetrahydro-6-phenylimidazo[1,2-b]thiazole]
With Levamisole (Luminescence Intensity, Counts) (negative control NC (0.1 M TEA buffer solution containing 5% BSA, pH 7.0)): 705 Counts | With Levamisole (Luminescence Intensity, Counts) (positive control PC (HBs antigen-positive serum)): 258759 Counts
